# Where two headings read alike, the source gives them in different places. *1 amine or outer side, *2 acyl side, *3 side chain or, on linkers, in order; H or OH if unused. Where a SMILES comes first, the peptide text is derived from it. Bridges are numbered along the chain shown (N, C = ends). [ ]: non-standard residue; d: D form. The star is where a group is joined. ξ: configuration not given here. NH(1,3-benzodioxol-5-yl) = c1cc2c(cc1N*)OCO2; Phe(3,5-F2) = N[C@@H](Cc1cc(F)cc(F)c1)C(=O)O; Morpholine(3S-CO) = O=C(O)[C@@H]1COCCN1; Pro(4S-Me) = C[C@@H]1CN[C@H](C(=O)O)C1; Pro(4R-Me) = C[C@H]1CN[C@H](C(=O)O)C1; X10 = O=C(C1C[C@H](F)CN1[*:1])[*:2]; NMeT = CN[C@H](C(=O)O)[C@@H](C)O; NH(4-Me-phenyl) = Cc1ccc(N*)cc1; aThr = C[C@H](O)[C@H](N)C(=O)O; Pip = O=C(O)[C@@H]1CCCCN1; ξPip = O=C(O)C1CCCCN1; CO = O=C([*:1])[*:2]; ξP = O=C(O)C1CCCN1
# Key:
# Format in all cases: cell-based
# [1] = tested on: Streptococcus pyogenes, ATCC 700294; assay: Minimal inhibitory concentration assay (microbroth dilution)
# Experimental: (§1) It is understood, that in various aspects, the MIC is determined by a microbroth dilution method. In a further aspect, the MIC is determined by a microbroth dilution method using Staphylococcus aureus, ATCC 29213. In a still further aspect, the MIC is determined by a microbroth dilution method using Staphylococcus aureus, NRS70. In a yet further aspect, the MIC is determined by a microbroth dilution method using Streptococcus pyogenes, ATCC 700294. In an even further aspect, the MIC is determined by a microbroth dilution method using Streptococcus pneumoniae, DAW27. In a still further aspect, the MIC is determined by a microbroth dilution method using Bacillus subtilis, ATCC 23857. In a yet further aspect, the MIC is determined by a microbroth dilution method using Enterococcus faecalis, ATCC 33186. In an even further aspect, the MIC is determined using Staphylococcus aureus, USA 300. In a still further aspect, the MIC is determined using Streptococcus pneumoniae, R6. In a further aspect, the MIC is determined using Staphylococcus aureus, USA 300 and compared to the MIC determined using Staphylococcus aureus, USA 300 wherein ClpP is inactivated, thus allowing confirmation that killing is via a ClpP-dependent pathway.
# Minimal inhibitory concentrations (“MICs”) were determined using the microbroth dilution method according to Clinical Laboratory Standards Institute (CLSI; National, C.F. C. L. S., Methods for Dilution Antimicrobial Susceptibility Tests for Bacteria Grow aerobically-Seventh Edition: Approved Standard M7-A7, CLSI, Wayne, Pa., USA, 2008) and were read by visual inspection. Two fold serial dilutions of test compound in 100 μL of the appropriate broth media were first prepared in 96-well round bottom microtiter plates (Nalgene Nunc International, Rochester, N.Y., USA). […] The plates were then incubated aerobically at 37° C. All strains were incubated overnight. After incubations, in all cases the MIC was recorded as the lowest concentration of drug that prevented bacterial growth. The bacterial strains for which MIC was determined as described in Table 4.
# [2] = tested on: Staphylococcus aureus, NRS70; assay: as above
# Experimental: as §1
# (§2) Minimal inhibitory concentrations (“MICs”) were determined using the microbroth dilution method according to Clinical Laboratory Standards Institute (CLSI; National, C.F. C. L. S., Methods for Dilution Antimicrobial Susceptibility Tests for Bacteria Grow aerobically-Seventh Edition: Approved Standard M7-A7, CLSI, Wayne, Pa., USA, 2008) and were read by visual inspection. Two fold serial dilutions of test compound in 100 μL of the appropriate broth media were first prepared in 96-well round bottom microtiter plates (Nalgene Nunc International, Rochester, N.Y., USA). An equivalent volume (100 μL) of bacterial broth inocula containing approximately 10^5 bacterial cfu/mL was added to each well to give final concentrations of test compound starting at 200 μM. The plates were then incubated aerobically at 37° C. All strains were incubated overnight. After incubations, in all cases the MIC was recorded as the lowest concentration of drug that prevented bacterial growth. The bacterial strains for which MIC was determined as described in Table 4.
# [3] = tested on: Staphylococcus aureus, ATCC 29213; assay: as above; settings: ATCC29213, read-out: Minimal Inhibitory Concentrations S. aureus ATCC 29213
# Experimental: as §1, §2
# [4] = tested on: Bacillus subtilis, ATCC 23857; assay: as above
# Experimental: as §1, §2
# [5] = tested on: Staphylococcus aureus, USA 300 wherein ClpP is inactivated; assay: Minimal inhibitory concentration assay
# Experimental: as §1, §2
# [6] = tested on: Staphylococcus aureus, USA 300; assay: Minimal inhibitory concentration assay; settings: USA300, read-out: Minimal Inhibitory Concentrations S. aureus USA 300
# Experimental: as §1, §2
# [7] = tested on: Streptococcus pneumoniae, R6; assay: Minimal inhibitory concentration assay; settings: read-out: Minimal Inhibitory Concentrations S. pneumoniae R6
# Experimental: It is understood, that in various aspects, the MIC is determined by a microbroth dilution method. […] In a still further aspect, the MIC is determined by a microbroth dilution method using Staphylococcus aureus, NRS70. […] In an even further aspect, the MIC is determined by a microbroth dilution method using Streptococcus pneumoniae, DAW27. […] In an even further aspect, the MIC is determined using Staphylococcus aureus, USA 300. In a still further aspect, the MIC is determined using Streptococcus pneumoniae, R6. In a further aspect, the MIC is determined using Staphylococcus aureus, USA 300 and compared to the MIC determined using Staphylococcus aureus, USA 300 wherein ClpP is inactivated, thus allowing confirmation that killing is via a ClpP-dependent pathway.
# Two fold serial dilutions of test compound in 100 μL of the appropriate broth media were first prepared in 96-well round bottom microtiter plates (Nalgene Nunc International, Rochester, N.Y., USA). […] The plates were then incubated aerobically at 37° C. All strains were incubated overnight. After incubations, in all cases the MIC was recorded as the lowest concentration of drug that prevented bacterial growth. The bacterial strains for which MIC was determined as described in Table 4.
# [8] = Cytotoxicity assay (CellTiter-Glo cell viability, 72 hours); settings: African green monkey
# Experimental: Cytotoxicity was determined by determining the effect of compounds on cell viability. Vero (kidney epithelial cells; ATCC CCL-81) monolayers were trypsinized and 5000 cells/well were seeded (10-15% confluency) into white-wall, flat bottom 96 well microwell plates (Corning) using enriched Dulbecco's Modified Eagle's Medium (Hyclone:DMEM/High Glucose) containing 10% Fetal Bovine Serum (ATCC-30-2020). Plates were incubated overnight at 37° C. in the presence of 5% CO2. Drug-free media was then replaced with media containing serial dilutions of test compound or DMSO carrier. After an additional 72 hours of incubation, viability was indirectly measured using the CellTiter-Glo® Luminescent Cell Viability (Promega) assay. Assay plates were read at peak emission wavelength of 560 nm using a EnVision® Multilabel Plate Reader (Perkin Elmer) or PHERAstar FS Multilabel reader (BMG, Cary, N.C.). […] USA, www.graphpad.com]. For each experiment, compounds were tested in duplicate. IC50 values presented are the range of two biologically independent experiments.
# [9] = Streptococcus pyogenes, ATCC700294; read-out: Minimal Inhibitory Concentrations S. pyogenes ATCC 700294
# [10] = Staphylococcus aureus, NRS70; read-out: Minimal Inhibitory Concentrations S. aureus NRS70
# [11] = Bacillus subtilis, ATCC23857; read-out: Minimal Inhibitory Concentrations B. subtilis ATCC 23857
# [12] = Streptococcus pyogenes, ATCC700294, read-out: Minimal Inhibitory Concentrations S. pyogenes ATCC 700294
# [13] = Staphylococcus aureus, NRS70, read-out: Minimal Inhibitory Concentrations S. aureus NRS70
# [14] = Bacillus subtilis, ATCC23857, read-out: Minimal Inhibitory Concentrations B. subtilis ATCC 23857
SMILES,"MIC [1, 9] [µM]","MIC [2, 10] [µM]",MIC [3] [µM],"MIC [4, 11] [µM]",Minimal Inhibitory Concentrations S. aureus USA 300 ΔClpP [5] [µM],MIC [6] [µM],MIC [7] [µM],IC50 at 72 h [8] [µM],"MIC [1, 12] [µM]","MIC [2, 13] [µM]","MIC [4, 14] [µM]"
"CN[C@@H]1[C@H](O)[C@H](NC)[C@H]2O[C@@]3(O)C(=O)C[C@@H](C)O[C@H]3O[C@@H]2[C@H]1O [Spectinomycin, spectinomycin, reference compound]",12.5,> 800,50,6.3,25,50,6.3,–,–,–,–
"C[C@H]1C[C@H]2C(=O)O[C@@H](C)[C@H](NC(=O)[C@H](Cc3cc(F)cc(F)c3)NC(=O)Nc3ccc4c(c3)OCO4)C(=O)N3CCC[C@H]3C(=O)N3CCCC[C@H]3C(=O)N[C@@H](C)C(=O)N2C1 [Compound 196, (S)-2-(3-(benzo[d][1,3]dioxol-5-yl)ureido)-3-(3,5-difluorophenyl)-N-((2R,6S,8aS,14aS,20S,21S,23aS)-2,6,21-trimethyl-5,8,14,19,23-pentaoxooctadecahydro-1H,5H,14H,19H-pyrido[2,1-i]dipyrrolo[2,1-c:2′,1′-l][1]oxa[4,7,10,13]tetraazacyclohexadecin-20-yl)propanamide] ({NH(1,3-benzodioxol-5-yl)-CO}-[Phe(3,5-F2)][aThr]P[Pip]A[Pro(4S-Me)]; ester 2-C)",–,–,–,–,–,–,–,52.8 ± 4.9,–,–,–
"Cc1ccc(NC(=O)N[C@@H](Cc2cc(F)cc(F)c2)C(=O)N[C@H]2COC(=O)C3C[C@H](F)CN3C(=O)[C@H](C)NC(=O)C3CCCCN3C(=O)C3CCCN3C2=O)cc1 (stereo partly drawn) [Compound 50, (S)-3-(3,5-difluorophenyl)-N-((2S,6S,8aS,14aS,20S,23aS)-2-fluoro-6-methyl-5,8,14,19,23-pentaoxooctadecahydro-1H,5H,14H,19H-pyrido[2,1-i]dipyrrolo[2,1-c:2′,1′-l][1]oxa[4,7,10,13]tetraazacyclohexadecin-20-yl)-2-(3-(p-tolyl)ureido)propanamide] ({NH(4-Me-phenyl)-CO}-[Phe(3,5-F2)]S[ξP][ξPip]A[X10]; ester 2-C)",–,–,3.1,–,>200,3.1,0.8,–,1.6,1.6,> 200
"C[C@@H]1C[C@H]2C(=O)O[C@@H](C)[C@H](NC(=O)[C@H](Cc3cc(F)cc(F)c3)NC(=O)Nc3ccc4c(c3)OCO4)C(=O)N3CCC[C@H]3C(=O)N3CCCC[C@H]3C(=O)N[C@@H](C)C(=O)N2C1 [Compound 198, (S)-2-(3-(benzo[d][1,3]dioxol-5-yl)ureido)-3-(3,5-difluorophenyl)-N-((2R,6S,8aS,14aS,20S,21S,23aS)-2,6,21-trimethyl-5,8,14,19,23-pentaoxooctadecahydro-1H,5H,14H,19H-pyrido[2,1-i]dipyrrolo[2,1-c:2′,1′-l][1]oxa[4,7,10,13]tetraazacyclohexadecin-20-yl)propanamide] ({NH(1,3-benzodioxol-5-yl)-CO}-[Phe(3,5-F2)][aThr]P[Pip]A[Pro(4R-Me)]; ester 2-C)",0.039,< 0.02,0.039,< 0.02,>20,0.039,< 0.02,–,–,–,–
"C[C@@H]1C[C@H]2C(=O)O[C@@H](C)[C@H](NC(=O)[C@H](Cc3cc(F)cc(F)c3)NC(=O)Nc3ccc4c(c3)OCO4)C(=O)N3CCC[C@H]3C(=O)N3CCOC[C@H]3C(=O)N[C@@H](C)C(=O)N2C1 [Compound 199, (S)-2-(3-(benzo[d][1,3]dioxol-5-yl)ureido)-3-(3,5-difluorophenyl)-N-((6aS,12S,13S,15aS,17R,21S,23aS)-13,17,21-trimethyl-6,11,15,20,23-pentaoxooctadecahydro-6H,11H,15H-[1,4]oxazino[3,4-i]dipyrrolo[2,1-c:2′,1′-l][1]oxa[4,7,10,13]tetraazacyclohexadecin-12-yl)propanamide] ({NH(1,3-benzodioxol-5-yl)-CO}-[Phe(3,5-F2)][aThr]P[Morpholine(3S-CO)]A[Pro(4R-Me)]; ester 2-C)",0.039,0.039,0.039,0.039,>20,0.078,< 0.02,–,–,–,–
"C[C@@H]1C[C@H]2C(=O)O[C@@H](C)[C@H](NC(=O)[C@H](Cc3cc(F)cc(F)c3)NC(=O)Nc3ccc4c(c3)OCO4)C(=O)N3CCC[C@H]3C(=O)N(C)[C@@H]([C@@H](C)O)C(=O)N[C@@H](C)C(=O)N2C1 [Compound 197, (S)-2-(3-(benzo[d][1,3]dioxol-5-yl)ureido)-3-(3,5-difluorophenyl)-N-((2R,6S,9S,11aS,17S,18S,20aS)-9-((R)-1-hydroxyethyl)-2,6,10,18-tetramethyl-5,8,11,16,20-pentaoxohexadecahydro-1H,5H,16H-dipyrrolo[2,1-c:2′,1′-l][1]oxa[4,7,10,13]tetraazacyclohexadecin-17-yl)propanamide] ({NH(1,3-benzodioxol-5-yl)-CO}-[Phe(3,5-F2)][aThr]P[NMeT]A[Pro(4R-Me)]; ester 2-C)",0.039,0.039,0.039,< 0.02,>20,0.078,< 0.02,–,–,–,–
"Cc1ccc(NC(=O)N[C@@H](Cc2cc(F)cc(F)c2)C(=O)N[C@H]2COC(=O)C3C[C@H](C)CN3C(=O)[C@H](C)NC(=O)C3CCCCN3C(=O)C3CCCN3C2=O)cc1C (stereo partly drawn) [Compound 48, (S)-3-(3,5-difluorophenyl)-N-((2S,6S,8aS,14aS,20S,23aS)-2,6-dimethyl-5,8,14,19,23-pentaoxooctadecahydro-1H,5H,14H,19H-pyrido[2,1-i]dipyrrolo[2,1-c:2′,1′-l][1]oxa[4,7,10,13]tetraazacyclohexadecin-20-yl)-2-(3-(3,4-dimethylphenyl)ureido)propanamide]",–,–,1.6,–,200,1.6,0.8,–,3.1,0.4,0.2

# Source: patent publication US10457707B2, “Substituted urea depsipeptide analogs as activators of the CLPP endopeptidase” (priority 2015, dated 2019)
